Source: patent US20250295657A1, “Methods and Compositions for Treatment of Inflammation and Inflammatory Conditions” (University of Pittsburgh - Of the Commonwealth System of …, priority 2022, published 2025)

Assays:
human PAECs = assay: Leukocyte and monocyte adhesion to an endothelial monolayer; type: cell-based
Procedure: Leukocyte and monocyte adhesion assays: Immune activation of the endothelium was assessed by measuring the adhesion of immune cells to an endothelial monolayer. Human PAECs were cultured until a complete monolayer was formed. Immune cells were stained with either CellTrace™ Blue or CFSE (ThermoFisher; Blue, C34568; CFSE, C34554) per the manufacturer's protocol. Between […] stained immune cells were added to each well of a six-well plate and allowed to incubate for 24 hours. Wells were then rinsed two times with PBS and subsequently fixed with 4% PFA for 15 minutes at room temperature. After fixation, the cells were rinsed once more with PBS. Fluorescent images were acquired at 4× magnification for each well. Immune cell number per image was quantified using Fiji. For the leukocyte adhesion assay, HuT 78 cutaneous T lymphocytes were used (ATCC). For the monocyte adhesion assay, THP-1 peripheral blood monocytes were used (ATCC).

[1] = test system: chronically hypoxic mouse model; details: 10 mg/kg orotracheal, four weeks hypoxia
VCAM1 = VCAM1 expression by RT-qPCR and immunoblot in PAECs; type: cell-based, human
Procedure: (§1) RNA extraction and quantitative polymerase chain reaction: Cells were lysed in QIAzol Lysis Reagent (Qiagen; 79306), and RNA was extracted using the Rnaeasy Kit (Qiagen; 74004). Complementary DNA was synthesized using the High-Capacity cDNA Reverse Transcription Kit (ThermoFisher; 4368813). Quantitative real-time PCR (RT-qPCR) was performed on an Applied Biosystems QuantStudio 6 Flex Real-Time PCR instrument.
(§2) Target gene expression was normalized to a housekeeping gene (i.e., ACTB) and fold change was calculated using the […] method. TaqMan™ Universal PCR Master Mix (ThermoFisher; 4305719) was used with TaqMan primers (Table 1). PowerUp™ SYBR^TM Green Master Mix (ThermoFisher; A25742) was used with custom designed primers (Table 2).
Protein extraction and immunoblotting: Cells were rinsed two times with PBS before collection in RIPA buffer containing protease and phosphatase inhibitors. Protein concentration was determined using the Pierce™ BCA Protein Assay Kit (ThermoFisher; 23225). Protein lysates were separated using 4-15% Mini-PROTEAN® TGX™ Precast Protein Gels (Bio-Rad Laboratories; 4561086) and subsequently transferred onto a PVDF membrane. Membranes were blocked with 5% BSA in Tris-buffered saline with 0.1% Tween 20 (TBST) for one hour at room temperature. Primary antibodies were subsequently added and incubated at 4° C. overnight (Table 3). The next day blots were washed three times for 10 minutes each with TBST. Blots were then incubated with the appropriate secondary antibody coupled to HRP for one hour at room temperature. After another round of TBST washing, blots were visualized using Pierce ECL reagents and images were captured using the BioRad ChemiDoc XRS+.
Application of oxysterols and bile acids: Oxysterols and bile acids were applied to human PAECs in 0.1% FBS, cell-specific media. 25-hydroxycholesterol and 7HOCA were dissolved in 100% ethanol and applied to cells at a concentration of 25 μM or 50 μM for 24 hours, respectively.

[2] = test system: monocrotaline PAH rat model; details: 7.5 mg/kg i.p. for 10 days
[3] = test system: BA.2 spike pseudotyped virus; type: cell-based
[4] = target: ATP6V1B2-NCOA7 interactions (Homo sapiens, UniProt Q8NI08); assay: Proximity ligation assay of ATP6V1B2-NCOA7 interactions in human PAECs; type: cell-based; details: 958ami versus DMSO
ATP6V1B2-NCOA7 interactions, sequence (P21281 whole entry partner, one chain of several): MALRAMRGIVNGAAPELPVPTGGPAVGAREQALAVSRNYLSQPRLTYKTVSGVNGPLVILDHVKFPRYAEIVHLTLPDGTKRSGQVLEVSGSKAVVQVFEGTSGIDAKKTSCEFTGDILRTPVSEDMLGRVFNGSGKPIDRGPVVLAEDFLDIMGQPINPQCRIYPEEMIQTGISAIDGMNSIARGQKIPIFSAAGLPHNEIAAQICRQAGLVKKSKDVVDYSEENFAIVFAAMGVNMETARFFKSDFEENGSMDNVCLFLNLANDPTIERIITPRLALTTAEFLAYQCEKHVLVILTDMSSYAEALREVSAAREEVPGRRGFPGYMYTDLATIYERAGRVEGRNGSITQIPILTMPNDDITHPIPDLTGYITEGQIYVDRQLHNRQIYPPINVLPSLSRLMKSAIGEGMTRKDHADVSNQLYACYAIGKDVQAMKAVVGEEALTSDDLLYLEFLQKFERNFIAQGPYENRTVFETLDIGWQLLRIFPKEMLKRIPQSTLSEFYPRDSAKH
Procedure: Proximity ligation assay: Direct interaction of NCOA7 with the V-ATPase subunit ATP6V1B2 was assessed using the Duolink® Proximity Ligation Assay (Millipore Sigma; DU092102). Human PAECs were plated in a Nunc™ Lab-Tek™ II Chamber Slide™ System (20,000 per well; ThermoFisher; 154453) and then fixed with 4% paraformaldehyde for 15 minutes. After permeabilization and blocking per the manufacturer's protocol, wells were incubated with either mouse anti-NCOA7 antibody (Santa Cruz Biotechnology; sc-393427), rabbit anti-ATP6V1B2 antibody (abcam; ab73404), both antibodies, or neither antibodies overnight at 4° C. (Table 3). Cells were then incubated with the PLUS and MINUS probes for one hour, ligated for 30 minutes, and amplified for 100 minutes at 37° C. Slides were then mounted with ProLong™ Gold Antifade Mountant with DAPI (ThermoFisher; P36935). Images were acquired on a Nikon A1 Confocal Microscope at the Center for Biologic Imaging at the University of Pittsburgh.

CH25H = CH25H expression via RT-qPCR in PAECs under IL-1β; type: cell-based, human
Procedure: as §1, §2

NCOA7 [5] = target: T1, NCOA7 (Homo sapiens, UniProt Q8NI08); assay: Initial experimental validation of top scoring virtual screening compounds; details: preliminary data
T1 sequence (Q8NI08 1-942): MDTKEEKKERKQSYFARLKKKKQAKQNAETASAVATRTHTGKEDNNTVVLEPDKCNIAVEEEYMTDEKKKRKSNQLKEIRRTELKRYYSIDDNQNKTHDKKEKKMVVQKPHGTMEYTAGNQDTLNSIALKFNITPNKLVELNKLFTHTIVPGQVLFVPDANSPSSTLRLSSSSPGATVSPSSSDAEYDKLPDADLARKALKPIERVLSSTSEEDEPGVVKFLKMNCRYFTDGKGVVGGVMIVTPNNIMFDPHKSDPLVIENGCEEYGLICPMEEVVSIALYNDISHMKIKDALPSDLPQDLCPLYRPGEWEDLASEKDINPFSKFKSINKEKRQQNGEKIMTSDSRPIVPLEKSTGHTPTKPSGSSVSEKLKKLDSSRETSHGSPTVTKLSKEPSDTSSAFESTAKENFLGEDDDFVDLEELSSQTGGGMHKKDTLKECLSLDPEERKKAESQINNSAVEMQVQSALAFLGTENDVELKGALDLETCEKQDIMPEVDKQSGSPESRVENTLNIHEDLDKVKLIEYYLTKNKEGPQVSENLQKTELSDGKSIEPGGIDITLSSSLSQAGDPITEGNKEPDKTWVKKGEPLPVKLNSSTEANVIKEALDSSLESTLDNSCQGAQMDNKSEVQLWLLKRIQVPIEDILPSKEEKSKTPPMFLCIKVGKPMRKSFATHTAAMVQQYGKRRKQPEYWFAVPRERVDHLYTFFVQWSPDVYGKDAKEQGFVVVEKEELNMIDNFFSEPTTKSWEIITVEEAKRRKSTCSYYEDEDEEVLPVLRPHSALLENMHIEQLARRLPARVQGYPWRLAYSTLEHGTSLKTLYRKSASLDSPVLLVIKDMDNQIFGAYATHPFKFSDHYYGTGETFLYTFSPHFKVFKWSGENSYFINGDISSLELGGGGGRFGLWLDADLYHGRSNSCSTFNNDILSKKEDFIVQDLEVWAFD
Excerpt: Pharmacophore modeling: Using Pharmmaker, we identified the residues involved in high affinity interactions with each molecular probe type. The residue-probe interactions were subsequently rank-ordered based on their frequency of occurrence at the druggable hot spots in multiple runs. […] The pharmacophore model contained a hydrogen bond donor and a hydrophobic feature at the isopropylamine site and hydrophobic and aromatic rings at the two benzene sites. The pharmacophore model was then screened against the ZINC and MolPort libraries using Pharmit. The MolPort library contains 67,033,884 conformers corresponding to 4,848,718 compounds, and the ZINC library contains 122,276,899 conformers of 13,127,550 compounds. Among top-scoring compounds, MolPort-004-267-958 was selected for further refinement after initial experimental validation.

coronavirus = details: mouse, in vivo
Klebsiella pneumoniae = assay: Mice infected with Klebsiella pneumoniae, acute lung injury; type: in vivo, mouse; details: 5 mg/kg IP daily for 3 days
Procedure: Mice were infected with Klebsiella pneumoniae. […] (FIG. 23 (A, B)) Representative images were prepared of lung tissue sections stained with H&E after 48 hours of intratracheal infection with K. pneumoniae in mice treated with DMSO compared to 958 (5 mg/kg IP dosing daily for 3 days).

NCOA7 [6] = assay: IL-1β-mediated upregulation of NCOA7 in ECs; type: cell-based; details: inhibition of STAT1/2 signaling
[7] = 25 μM for 24 hours versus ethanol

CC(CCC[C@@H](C)[C@H]1CC[C@H]2[C@@H]3[C@H](O)CC4=CC(=O)CC[C@]4(C)[C@H]3CC[C@]12C)C(=O)O (stereo partly drawn) [7HOCA, 7α-hydroxy-3-oxo-4-cholestenoic acid]
adhesion of leukocytes and monocytes to a PAEC monolayer (human PAECs; 7HOCA-treated PAECs versus ethanol control): promoting adhesion
CD11b+ monocyte infiltration into the vascular bed [1]: enhanced
RVSP [1]: increased
VCAM1 expression in pulmonary vessels [1]: enhanced
pulmonary arteriolar remodeling [1]: increased
VCAM1 expression (VCAM1; 7HOCA 50 μM for 24 hours versus ethanol control): significantly upregulated

C[C@H](CCCC(C)(C)O)[C@H]1CC[C@H]2[C@@H]3CC=C4C[C@@H](O)CC[C@]4(C)[C@H]3CC[C@]12C [25HC, 25-hydroxycholesterol]
immune cell adhesion to a PAEC monolayer (human PAECs; [7]): enhanced immune cell adhesion
VCAM1 expression (VCAM1; [7]): similarly upregulated VCAM1

O=C(NCc1cc(=O)oc2cc(O)c(O)cc12)c1nn(-c2ccccc2)c(=O)c2ccccc12 [958ami]
EC immunoactivation as noted by immune cell adhesion to a monolayer (human PAECs; 958ami-treated PAECs versus DMSO): decreased EC immunoactivation
CD11b+ monocyte infiltration at the pulmonary vessel [2]: attenuation
CH25H expression in pulmonary vessels [2]: decreased CH25H expression
RVSP [2]: significant reduction
VCAM1 expression at the endothelium [2]: attenuation
pulmonary vessel muscularization [2]: decreased muscularization
right ventricular hypertrophy (Fulton's Index) [2]: significant reduction
hepatic or renal toxicity ([2]; versus vehicle): neither had appreciable hepatic or renal toxicity
BA.2 spike pseudotyped virus infection [3]: decrease
number of amplifications per cell (ATP6V1B2-NCOA7 interactions) [4]: significantly induced
CH25H induction (CH25H): prevented induction of CH25H
EC immunoactivation as noted by VCAM1 expression (VCAM1; 958ami 20 μM for 24 hours versus DMSO): decreased EC immunoactivation

O=C(OCc1cc(=O)oc2cc(O)c(O)cc12)c1nn(-c2ccccc2)c(=O)c2ccccc12 [compound 958]
effect on NCOA7 relative to the other predicted compounds (NCOA7 [5]): activator of NCOA7
mortality (coronavirus): significantly improved mortality
proinflammatory markers (IL-1α, IL-1β, IFN-γ, VCAM1, and ICAM1) in lung tissue (coronavirus): attenuation
viral load in lung tissue (coronavirus): decreased viral load
BA.2 spike pseudotyped virus infection [3]: decrease
inflammation by ELISA on lung homogenate of IL-1β, TNF-α, and IL-6 (Klebsiella pneumoniae): decreased inflammation
acute lung injury (Klebsiella pneumoniae; H&E after 48 hours of intratracheal infection): improvement of acute lung injury

N#CCNC(=O)c1ccc(-c2ccnc(Nc3ccc(N4CCOCC4)cc3)n2)cc1 [momelotinib]
IL-1β-mediated upregulation of NCOA7 (NCOA7 [6]): abrogated
